Here are results for two compounds from patent US20230119013A1, “N-CYANOPYRROLIDINES WITH ACTIVITY AS USP30 INHIBITORS” (MISSION THERAPEUTICS LIMITED, priority 2020, published 2023).

One data set concerns the target T1, USP30 (Homo sapiens, UniProt Q70CQ3).
T1 construct: purchased Boston Biochem E582
T1 sequence (Q70CQ3 57-517 limits assumed): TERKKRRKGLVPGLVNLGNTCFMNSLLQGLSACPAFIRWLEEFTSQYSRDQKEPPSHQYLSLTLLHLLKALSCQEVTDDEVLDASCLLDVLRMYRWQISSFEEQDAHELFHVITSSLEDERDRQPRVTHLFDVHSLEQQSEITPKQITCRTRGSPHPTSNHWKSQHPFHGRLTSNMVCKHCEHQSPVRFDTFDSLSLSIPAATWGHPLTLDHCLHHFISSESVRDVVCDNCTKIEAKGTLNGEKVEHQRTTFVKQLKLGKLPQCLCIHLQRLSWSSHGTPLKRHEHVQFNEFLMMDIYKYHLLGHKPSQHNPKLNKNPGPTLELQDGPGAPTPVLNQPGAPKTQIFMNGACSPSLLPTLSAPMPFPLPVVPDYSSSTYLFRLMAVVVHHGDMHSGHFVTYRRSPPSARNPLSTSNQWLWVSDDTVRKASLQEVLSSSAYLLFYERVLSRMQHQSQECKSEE
Kind of data set: USP30 biochemical IC50 assay (fluorescence polarisation). As to conditions: for fold more potent against USP30 than Reference Example A / fold more potent against USP30 than Reference Example B / fold more potent against USP30 than Reference Example C / fold more potent against USP30 than Reference Example D: biochemical assay; for IC50: read-out: USP30 IC50. Here is the method:
Dilution plates were prepared at 21 times the final concentration (2100 μM for a final concentration of 100 μM) in 50% DMSO in a 96-well polypropylene V-bottom plate (Greiner #651201). A typical 8-point dilution series would be 100, 30, 10, 3, 1, 0.3, 0.1, 0.03 μM final. Reactions were performed in duplicate in black 384 well plates (small volume, Greiner 784076) in a final reaction volume of 21 μl. Either 1 μl of 50% DMSO or diluted compound was added to the plate. USP30 (Boston Biochem #E582) was diluted in reaction buffer (40 mM Tris, pH 7.5, 0.005% Tween 20, 0.5 mg/ml BSA, 5 mM beta-mercaptoethanol) to achieve a final assay concentration of 4 nM, and 10 μl of diluted USP30 was added to the compound. Enzyme and compound were incubated for 30 min at room temp. Reactions were initiated by the addition of 50 nM of TAMRA labelled peptide linked to ubiquitin via an iso-peptide bond as fluorescence polarisation substrate. Reactions were read immediately after addition of substrate and following a 2-hour incubation at room temperature. Readings were performed on a Pherastar Plus (BMG Labtech). λ Excitation 540 nm; Emission 590 nm.
(Polarisation of emitted light reports the rotation of a fluorescent probe.)

The test system of data set [1] is UCHL1, USP1, USP2, USP6, USP9x, USP10, USP15, USP16, USP20, USP21, USP22, USP25, USP28, USP35, USP36, USP46/UAF1. Nature of the data set: DUB biochemical IC50 assays (off-target panel).
In data set [2] the test system is Salmonella typhimurium strains TA98, TA100, TA1535 and TA97a and the Escherichia Coli strain WP2 uvrA pKM101. Nature of the data set: Bacterial reverse mutation assay (Ames). It is filed as cell-based. The note with it: up to 1000 μg/well (5000 μg/plate), with and without metabolic activation. Here is the method: The bacterial reverse mutation assay (Ames Test) may be used to evaluate the mutagenic properties of compounds of the invention, commonly by using the bacterial strain Salmonella typhimurium, which is mutant for the biosynthesis of the amino acid histidine.
Example 1 was assessed in the bacterial reverse mutation assay (Ames) and in vitro micronucleus assay. All in vitro tests were conducted with and without exogenous metabolic activation using concentrations up to those limited by cytotoxicity or insolubility.
Example 2 was assessed in the bacterial reverse mutation assay (Ames). All in vitro tests were conducted with and without exogenous metabolic activation using concentrations up to those limited by cytotoxicity or insolubility.

A further data set is described as follows: Log D measurement. As to conditions: pH 7.4; read-out: Log D measured at pH 7.4. Type of data set: physicochemical. From the text:
(§1) log P: partition coefficient; lipophilicity measurement. log D: distribution co-efficient; lipophilicity measurement. TPSA: topological polar surface area. Turbidimetric solubility: Test compound solution prepared in DMSO diluted into aqueous buffer. Turbidimetry is used as the end-point by measuring absorbance at 620 nm. FaSSIF: simulated intestinal fluid in fasted state measured at pH 6.5. Hep Cl mouse: in vitro hepatocyte clearance in mouse cells. Hep Cl human: in vitro hepatocyte clearance in human cells. Plasma fu,p: The free fraction of a compound in plasma preparation determined by in vitro equilibrium dialysis. It is understood that only unbound (free) compound is capable of engaging with the target. Brain fu,br: The free fraction of a compound in brain homogenate preparation determined by in vitro equilibrium dialysis. It is understood that only unbound (free) compound is capable of engaging with the target. Clu: in vitro clearance. Clu as defined here is the scaled clearance, in turn calculated from the intrinsic clearance. The intrinsic clearance is the predicted clearance due to hepatic metabolic reactions, determined from incubation of a compound in a hepatocyte preparation. […] Cl in vivo clearance: Pharmacokinetic measurement of the volume of plasma (or any matrix) from which a substance is completely removed per unit time.

The next data set in a line: FaSSIF solubility. The note with it: pH 6.5, simulated intestinal fluid in fasted state. Type of data set: physicochemical.
Text: as §1

Data set [3] is described as follows: Plasma free fraction by equilibrium dialysis. Type of data set: in vitro ADME. As to conditions: mouse plasma; read-out: Binding Mouse Plasma fu, p.
Text: as §1

Data set [4] can be described thus: Brain homogenate free fraction by equilibrium dialysis. It is filed as in vitro ADME. The note with it: mouse brain homogenate; read-out: Binding Mouse Brain fu, br.
Text: as §1
Background: Equilibrium dialysis compares concentrations on both sides of a semipermeable membrane.

The nature of a further data set: PK mouse. Type of data set: in vivo. As to conditions: for Unbound plasma Cmax/TOM20-Ub cell potency: 10 mg/kg PO dose - mouse; for bioavailability: po, 10 mg/kg, read-out: PK mouse Oral F (%); for bioavailability / clearance: mouse.
Text: as §1
MDR1-MDCK (Madin-Darby Canine Kidney cell monolayer) (in vitro) flux assay. Cell TE WB: USP30 endogenous cellular target engagement western blot (WB) assay. Assays the activity of compounds against USP30 in cells using an irreversible activity probe to monitor USP30 activity. TE ex vivo: USP30 kidney tissue target engagement assay. Kp u,u is the ratio of unbound drug in brain to unbound drug in plasma and may be indicative of potential for treating peripheral and/or CNS indications.

[5] abbreviates: whole blood, 2 mg/kg iv, read-out: PK mouse Cl blood.

The IC50 is the concentration that inhibits the measured activity by half.

Each structure is given as a SMILES string. Where two headings read alike, the source gives them in different places.

In the case of `C[C@@H]1C[C@@H](NC(=O)c2ncc(-c3cccc(OC(F)(F)F)c3)o2)CN1C#N` [Example 2, N-((3R,5R)-1-Cyano-5-methylpyrrolidin-3-yl)-5-(3-(trifluoromethoxy)phenyl)oxazole-2-carboxamide], at USP30, the “fold more potent against USP30 than Reference Example A” value was 14 fold, the “fold more potent against USP30 than Reference Example B” value is listed as 34 fold, the “fold more potent against USP30 than Reference Example C” value was found to be 62 fold and the “fold more potent against USP30 than Reference Example D” value was 880 fold. Besides, the IC50 at USP30 was found to be 5 nM. Also, the “more selective for USP30 over DUB panel” value in data set [1] (v the 14 DUBs of the 10th table) is on record as “(≥940 × more selective”. Further, in data set [2] (TA98 and TA100), the “induction of mutations, reverse mutation assay” value was “did not induce mutations”. In the data set “Log D measurement”, the logD amounted to 3.4. For the same compound, in “FaSSIF solubility”, the “FaSSIF (μM) measured at pH 6.5” value was 25 μM. Also, in data set [3], the fraction unbound was 0.05. The fraction unbound in data set [4] came to 0.028. The “Unbound plasma Cmax/TOM20-Ub cell potency” value in the data set “PK mouse” is reported as 7-fold. Further, the bioavailability in the data set “PK mouse” (in vivo) is 36%. Moreover, the clearance in the data set “PK mouse” (setting [5]) was 58 mL/min/kg.
Take `COC[C@@H]1C[C@@H](NC(=O)c2ncc(-c3cccc(OC(F)(F)F)c3)o2)CN1C#N` [Example 1, N-((3R,5S)-1-Cyano-5-(methoxymethyl)pyrrolidin-3-yl)-5-(3-(trifluoromethoxy)phenyl)oxazole-2-carboxamide]: at USP30, the “fold more potent against USP30 than Reference Example A” value is given as 14 fold, the “fold more potent against USP30 than Reference Example B” value came to 34 fold, the “fold more potent against USP30 than Reference Example C” value stood at 62 fold and the “fold more potent against USP30 than Reference Example D” value was found to be 880 fold. Also, on USP30, the IC50 amounted to 5 nM. Besides, the “more selective for USP30 over DUB panel” value in data set [1] (v the 16 DUBs of the 9th table) is reported as “(≥880 × more selective”. The “induction of mutations, reverse mutation assay” value in data set [2] (TA98, TA100, TA1535, TA97a and E. coli WP2 uvrA pKM101) is on record as “did not induce mutations”. Moreover, the logD in the data set “Log D measurement” is 2.9. Further, in the data set “FaSSIF solubility”, the “FaSSIF (μM) measured at pH 6.5” value is recorded as 89 μM. In data set [3], the fraction unbound was determined as 0.06. Also, the fraction unbound in data set [4] came out at 0.043. Moreover, the Kp uu in the data set “PK mouse” (2 mg/kg IV dose - mouse, unbound brain to unbound plasma) was 0.21. Moreover, in “PK mouse”, the “Unbound plasma Cmax/TOM20-Ub cell potency” value was 25-fold. Moreover, the bioavailability in “PK mouse” (plasma) came out at 59%. In addition, the clearance in “PK mouse” (plasma, IV, read-out: IV plasma clearance) came to 20 mL/min/kg. Also, the clearance in “PK mouse” (setting [5]) was found to be 20 mL/min/kg.
